Calls of active or inactive are those of the source. The rule behind the calls is not given here.
Tests used:
Mus musculus [1] = assay: Toxicity in BALB/c albino mouse infected with blood trypomastigote stage of Trypanosoma cruzi assessed as decrease in alkaline phosphatase level in serum at 40 mg/kg, ip administered on day 7 to 12 post-infection measured after day 150 relative to control; format: organism-based; parameters: dose 40 mg/kg, route intraperitoneal; scale not given: the % may be the effect or the level left; details: in vivo
Mus musculus [2] = assay: Toxicity in BALB/c albino mouse infected with blood trypomastigote stage of Trypanosoma cruzi assessed as decrease in alkaline phosphatase level in serum at 25 mg/kg, ip administered on day 7 to 12 post-infection measured after day 120 relative to control; format: organism-based; parameters: dose 25 mg/kg, route intraperitoneal; scale not given: the % may be the effect or the level left; details: in vivo
Mus musculus [3] = assay: Toxicity in BALB/c albino mouse infected with blood trypomastigote stage of Trypanosoma cruzi assessed as increase in total bilirubin level in serum at 500 mg/kg, ip relative to control; format: organism-based; parameters: dose 500 mg/kg, route intraperitoneal; details: in vivo
Mus musculus [4] = assay: Toxicity in BALB/c albino mouse infected with blood trypomastigote stage of Trypanosoma cruzi assessed as increase in total bilirubin level in serum at 40 mg/kg, ip administered on day 7 to 12 post-infection measured after day 150 relative to control; format: organism-based; parameters: dose 40 mg/kg, route intraperitoneal; details: in vivo
Mus musculus [5] = assay: Toxicity in BALB/c albino mouse infected with blood trypomastigote stage of Trypanosoma cruzi assessed as change in ALT/GPT level in serum at 25 mg/kg, ip administered on day 7 to 12 post-infection measured after day 120 relative to control; format: organism-based; parameters: dose 25 mg/kg, route intraperitoneal; details: in vivo
Mus musculus [6] = assay: Toxicity in BALB/c albino mouse infected with blood trypomastigote stage of Trypanosoma cruzi assessed as change in AST/GOT level in serum at 500 mg/kg, ip relative to control; format: organism-based; parameters: dose 500 mg/kg, route intraperitoneal; details: in vivo
Mus musculus [7] = assay: Toxicity in BALB/c albino mouse infected with blood trypomastigote stage of Trypanosoma cruzi assessed as increase in AST/GOT level in serum at 25 mg/kg, ip administered on day 7 to 12 post-infection measured after day 120 relative to control; format: organism-based; parameters: dose 25 mg/kg, route intraperitoneal; details: in vivo
Mus musculus [8] = assay: Toxicity in BALB/c albino mouse infected with blood trypomastigote stage of Trypanosoma cruzi assessed as increase in total bilirubin level in serum at 25 mg/kg, ip administered on day 7 to 12 post-infection measured after day 120 relative to control; format: organism-based; parameters: dose 25 mg/kg, route intraperitoneal; details: in vivo
Mus musculus [9] = assay: Toxicity in BALB/c albino mouse infected with blood trypomastigote stage of Trypanosoma cruzi assessed as increase in LDH level in serum at 40 mg/kg, ip administered on day 7 to 12 post-infection measured after day 150 relative to control; format: organism-based; parameters: dose 40 mg/kg, route intraperitoneal; details: in vivo
Mus musculus [10] = assay: Toxicity in BALB/c albino mouse infected with blood trypomastigote stage of Trypanosoma cruzi assessed as change in creatinephophokinase-MB level in serum at 40 mg/kg, ip administered on day 7 to 12 post-infection measured after day 150 relative to control; format: organism-based; parameters: dose 40 mg/kg, route intraperitoneal; details: in vivo
Mus musculus [11] = assay: Toxicity in BALB/c albino mouse infected with blood trypomastigote stage of Trypanosoma cruzi assessed as change in creatinephophokinase-MB level in serum at 25 mg/kg, ip administered on day 7 to 12 post-infection measured after day 120 relative to control; format: organism-based; parameters: dose 25 mg/kg, route intraperitoneal; details: in vivo
Mus musculus [12] = assay: Toxicity in BALB/c albino mouse infected with blood trypomastigote stage of Trypanosoma cruzi assessed as increase in uric acid level in serum at 25 mg/kg, ip administered on day 7 to 12 post-infection measured after day 120 relative to control; format: organism-based; parameters: dose 25 mg/kg, route intraperitoneal; details: in vivo
Mus musculus [13] = assay: Toxicity in BALB/c albino mouse infected with blood trypomastigote stage of Trypanosoma cruzi assessed as increase in urea level in serum at 500 mg/kg, ip; format: organism-based; parameters: dose 500 mg/kg, route intraperitoneal; details: in vivo
Mus musculus [14] = assay: Toxicity in BALB/c albino mouse infected with blood trypomastigote stage of Trypanosoma cruzi assessed as change in urea level in serum at 40 mg/kg, ip administered on day 7 to 12 post-infection measured after day 150 relative to control; format: organism-based; parameters: dose 40 mg/kg, route intraperitoneal; details: in vivo
Mus musculus [15] = assay: Toxicity in BALB/c albino mouse infected with blood trypomastigote stage of Trypanosoma cruzi assessed as change in urea level in serum at 25 mg/kg, ip administered on day 7 to 12 post-infection measured after day 120 relative to control; format: organism-based; parameters: dose 25 mg/kg, route intraperitoneal; details: in vivo
Trypanosoma cruzi [16] = assay: Trypanocidal activity against blood trypomastigote stage of Trypanosoma cruzi infected in immunosuppressed BALB/c albino mouse chronic chagas disease model assessed as decrease in parasite burden in heart at 40 mg/kg, ip administered on day 7 to 12 post-infection measured on day 150 by PCR analysis relative to control; format: functional; parameters: scale not given: the % may be the effect or the level left; details: route intraperitoneal
Trypanosoma cruzi [17] = assay: Trypanocidal activity against blood trypomastigote stage of Trypanosoma cruzi infected in immunosuppressed BALB/c albino mouse chronic chagas disease model assessed as increase in total Ig-G level at 40 mg/kg, ip administered on day 7 to 12 post-infection measured after day 150 by ELISA; format: functional, organism-based; parameters: dose 40 mg/kg
Trypanosoma cruzi [18] = assay: Trypanocidal activity against metacyclic trypomastigote stage of Trypanosoma cruzi infected in BALB/c albino mouse acute chagas disease model assessed as inhibition of parasitemia at 25 mg/kg, ip administered on day 7 to 12 post-infection measured every 2 days until day 40 […] relative to control; format: functional; details: route intraperitoneal
Trypanosoma cruzi [19] = assay: Trypanocidal activity against metacyclic trypomastigote stage of Trypanosoma cruzi infected in BALB/c albino mouse acute chagas disease model assessed as reduction of parasite burden at 25 mg/kg, ip administered on day 7 to 12 post-infection measured on day 14 by ELISA; format: functional, organism-based; parameters: dose 25 mg/kg
Mus musculus [20] = assay: Toxicity in BALB/c albino mouse assessed as mortality at 25 mg/kg, ip administered for 5 days; format: organism-based; parameters: dose 25 mg/kg, route intraperitoneal; details: in vivo, 120 h
Trypanosoma cruzi [21] = assay: Antitrypanosomal activity against trypomastigote stage of Trypanosoma cruzi IRHOD/CO/2008/SN3 assessed as reduction of trypomastigote number per mililiter of culture medium at IC25 preincubated for 12 hrs followed by compound washout measured every 48 hrs for 10 days by Neubauer hemocytometric chamber analysis relative to control; format: functional
[22] = Selectivity index, ratio of IC50 for African green monkey Vero cells to IC50 for amastigote stage of Trypanosoma cruzi IRHOD/CO/2008/SN3 infected in African green monkey Vero cells; format: toxicity, cell-based; details: read-out: Ratio IC50
Trypanosoma cruzi [23] = assay: Antitrypanosomal activity against epimastigote stage of Trypanosoma cruzi IRHOD/CO/2008/SN3 assessed as parasite growth inhibition after 72 hrs by Neubauer hemocytometric chamber analysis; format: functional, organism-based; details: IRHOD/CO/2008/SN3, 72 h
[24] = Dissociation constant, pKa of the compound in aqueous solution; format: physicochemical
Trypanosoma cruzi [25] = assay: Antitrypanosomal activity against epimastigote stage of Trypanosoma cruzi IRHOD/CO/2008/SN3 assessed as mortality at IC25 after 72 hrs by TEM analysis; format: functional, organism-based
Trypanosoma cruzi [26] = assay: Antitrypanosomal activity against epimastigote stage of Trypanosoma cruzi IRHOD/CO/2008/SN3 assessed as appearance of enormous reservosomes at IC25 after 72 hrs by TEM analysis; format: functional, organism-based
Trypanosoma cruzi [27] = assay: Antitrypanosomal activity against epimastigote stage of Trypanosoma cruzi IRHOD/CO/2008/SN3 assessed as appearance of swollen structure filled with empty vacuoles at IC25 after 72 hrs by TEM analysis; format: functional, organism-based
Trypanosoma cruzi [28] = assay: Antitrypanosomal activity against epimastigote stage of Trypanosoma cruzi IRHOD/CO/2008/SN3 assessed as change in excreted succinate level at IC25 after 96 hrs by 1H NMR analysis relative to control; format: functional
Trypanosoma cruzi [29] = assay: Antitrypanosomal activity against epimastigote stage of Trypanosoma cruzi IRHOD/CO/2008/SN3 assessed as change in excreted pyruvate level at IC25 after 96 hrs by 1H NMR analysis relative to control; format: functional
Trypanosoma cruzi [30] = assay: Antitrypanosomal activity against epimastigote stage of Trypanosoma cruzi IRHOD/CO/2008/SN3 assessed as change in excreted alanine level at IC25 after 96 hrs by 1H NMR analysis relative to control; format: functional
Mus musculus [31] = assay: Toxicity in BALB/c albino mouse infected with blood trypomastigote stage of Trypanosoma cruzi assessed as increase in alkaline phosphatase level in serum at 500 mg/kg, ip relative to control; format: organism-based; parameters: dose 500 mg/kg, route intraperitoneal; details: in vivo

Work on CCCCNc1c(N(C)CCCN(C)C)c(=O)c1=O yielded an Activity (Mus musculus [1]) of 30%, an Activity (Mus musculus [2]) of 10% and an Activity (Mus musculus [3]) of 40%. It also gave an Activity (Mus musculus [4]) of 30%, an Activity (Mus musculus [5]) of less than 10% and an Activity (Mus musculus [6]) of less than 10%. The Activity (Mus musculus [7]) was 10%, the Activity (Mus musculus [8]) was 10% and the Activity (Mus musculus [9]) was 10%. For the same compound, the Activity (Mus musculus [10]) was less than 10%, the Activity (Mus musculus [11]) was less than 10% and the Activity (Mus musculus [12]) was 30%. It also gave an Activity (Mus musculus [13]) of 30%, an Activity (Mus musculus [14]) of less than 10% and an Activity (Mus musculus [15]) of less than 10%. The Activity (Trypanosoma cruzi [16]) was 83.3%, the Activity (Trypanosoma cruzi [17]) was “Active” and the inhibition in vivo at 25 mg/kg (Trypanosoma cruzi [18]) was 67%. For the same compound, the Activity (Trypanosoma cruzi [19]) was “Active”, the Activity (Mus musculus [20]) was “Non-toxic” and the “inhibition (INH)” value (Trypanosoma cruzi [21]) was 75%. It also gave a selectivity ratio [22] of 53.3, an IC50 (Trypanosoma cruzi [23]) of 9.4 µM and a pKa [24] of 8.8. The Activity (Trypanosoma cruzi [25]) was “Active”, the Activity (Trypanosoma cruzi [26]) was “Active” and the Activity (Trypanosoma cruzi [27]) was “Active”. For the same compound, the Activity (Trypanosoma cruzi [28]) was -26.9%, the Activity (Trypanosoma cruzi [29]) was 81.5% and the Activity (Trypanosoma cruzi [30]) was -18.5%. It also gave an Activity (Mus musculus [31]) greater than 50%.
